Results published in patent US8580769B2, “Treatment of obesity, metabolic syndrome, and diabetes with protein kinase C inhibitors” (The United States of America as represented by the …, priority 2011, dated 2013).

Assays:
[1] = test system: Het-MλKO mice; test: clinical parameters in Het-MλKO mice (model of obesity/metabolic syndrome/T2DM); type: in vivo, mouse; details: ICAP-treated Mλ-Het KO mice (n = 12), 0.5 mg/kg body weight/day x 8 days s.c., mean ± SEM
[2] = test system: aPKC; test: insulin-stimulated tissue aPKC activity in wild type mice after a single ICAPP injection; type: in vivo, mouse; details: 1.5 mg/kg ICAPP s.c., 2-30 hours, insulin 1 U/kg
Experimental: aPKCι Assays: aPKC enzyme activity was measured as previously described (Standaert et al., J. Biol. Chem. 279:24929-24934, 2004; Sajan et al., J. Lipid Res. 50:1133-1145, 2009; Sajan et al., Diabetologia 52:1197-1207, 2009; Farese et al., J. Clin. Invest. 117:2289-2301, 2007). In brief, aPKCs were immunoprecipitated from cell lysates with a rabbit polyclonal antiserum (Santa Cruz Biotechnologies) that recognizes the C-termini of both PKC-ζ and PKC-λ/ι (whereas mouse (Bandyopadhyay et al., Endocrinol. 141:4120-4127, 2000) and human (present findings) muscle contains mainly PKC-λ and PKC-ι, respectively, and little PKC-ζ, mouse and human liver contains substantial amounts of both PKC-ζ and PKC-λ (Sajan et al., J. Lipid Res. 50:1133-1145, 2009; Matsumoto et al., J. Clin. Invest. 112:935-944, 2003; and present results). Immunoprecipitates were collected on Sepharose-AG beads (Santa Cruz Biotechnologies), and beads were suspended and incubated for 8 minutes at 30° C. in 100 buffer containing 50 mM Tris/HCl (pH, 7.5), 100 μM Na3VO4, 100 μM Na4P2O7, 1 mM NaF, 100 μM PMSF, 4 μg phosphatidylserine (Sigma-Aldrich), 50 μM [γ-^32P]ATP (NEN Life Science Products/Perkin-Elmer, Waltham, Mass.), 5 mM MgCl2, and, as substrate, 40 μM serine analogue of the PKC-ε pseudosubstrate (BioSource/Invitrogen, Carlsbad, Calif.). After incubation, ^32P-labeled substrate was trapped on P-81 filter paper and counted. This assay reflects the specific activity of a constant amount of aPKC (even in Het-MλKO mice) that is immunoprecipitated by supplier-prescribed amounts of antiserum (Farese et al., J. Clin. Invest. 117:2289-2301, 2007; Beeson et al., Diabetes 52:1926-1934, 2003).
Wild type mice were treated with 1.5 mg/kg ICAPP subcutaneously and after 2-30 hours, the mice were treated with 1 U/kg insulin 15 minutes before euthanasia. aPKC activity was determined as described in Example 1.

[3] = biological target: T1, Akt2 (Homo sapiens, UniProt P31751); test: Akt2 activity in human hepatocytes; type: cell-based
T1 construct: host or cells: primary human hepatocytes
Experimental: After thawing, the hepatocytes were distributed (approximately 10^6 cells per 100 mm plate) and incubated approximately 16 hours overnight in Dulbecco's minimal essential medium containing 5% fetal calf serum, 100 units/ml sodium-penicillin, 100 μg/ml streptomycin-sulfate, 1 μM insulin and 2 μM dexamethasone. After washing, cells were incubated first for 2 hours in William's E medium (Sigma-Aldrich, St. Louis, Mo., catalog no. W1878) containing GLUTAMAX™ (Gibco/Invitrogen, Carlsbad, Calif.), 100 units/ml sodium-penicillin, 100 μg/ml streptomycin-sulfate, 10 μM insulin, 100 nM dexamethasone, and then for 2 hours in William's E medium containing 100 units/ml sodium penicillin, 100 μg/ml streptomycin-sulfate, 100 nM dexamethasone, 0.25 mg/ml transferrin, 0.25 μg/ml sodium selenite and 10 μM insulin. Cells were then washed and incubated for 3 hours in the same medium, but lacking insulin. […]
Akt2 Assay: Akt2 enzyme activity was measured with a kit obtained from Upstate Cell Signaling, as described (Standaert et al., J. Biol. Chem. 279:24929-24934, 2004; Sajan et al., J. Lipid Res. 50:1133-1145, 2009; Sajan et al., Diabetologia 52:1197-1207, 2009; Farese et al., J. Clin. Invest. 117:2289-2301, 2007). […] Akt1/2 activation was also assessed by immunoblotting for phosphorylation of serine-473.

T1 sequence (P31751 whole entry): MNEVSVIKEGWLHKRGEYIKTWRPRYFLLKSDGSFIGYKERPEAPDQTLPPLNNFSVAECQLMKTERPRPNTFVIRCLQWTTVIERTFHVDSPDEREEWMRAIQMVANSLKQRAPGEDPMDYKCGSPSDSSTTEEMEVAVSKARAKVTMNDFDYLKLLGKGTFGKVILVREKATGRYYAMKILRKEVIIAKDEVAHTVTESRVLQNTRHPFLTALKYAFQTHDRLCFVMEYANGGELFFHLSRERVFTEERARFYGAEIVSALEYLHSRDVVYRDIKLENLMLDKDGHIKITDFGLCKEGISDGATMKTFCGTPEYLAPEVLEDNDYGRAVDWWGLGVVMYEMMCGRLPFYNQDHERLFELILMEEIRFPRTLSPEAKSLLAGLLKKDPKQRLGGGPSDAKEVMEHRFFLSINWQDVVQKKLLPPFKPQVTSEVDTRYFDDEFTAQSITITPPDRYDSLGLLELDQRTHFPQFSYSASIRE

For `NC(=O)c1ncn([C@@H]2C[C@H](CO)[C@@H](O)[C@H]2O)c1N` [ICAP, 1H-imidazole-4-carboxamide 5-amino-1-[2,3-dihydroxy-4-[hydroxymethyl]cyclopentyl]-[1R-(1α,2β,3β,4α)]], the 10-min-post-insulin serum glucose [1] was 91 ± 8 mg/dL.

For `NC(=O)c1ncn([C@@H]2C[C@H](COP(=O)(O)O)[C@@H](O)[C@H]2O)c1N` [ICAPP, 1H-imidazole-4-carboxamide, 5-amino-1-[2,3-dihydroxy-4-[(phosphonooxy)methyl]cyclopentyl]-[1R-(1α,2β,3β,4α)]], the “insulin-stimulated aPKC activity in adipose tissue” value [2] was “not in either muscle or adipose tissues”, the “insulin-stimulated aPKC activity in liver” value [2] was “diminished” and the “insulin-stimulated aPKC activity in muscle” value [2] was “not in either muscle or adipose tissues”. For the same compound, the “insulin-induced increases in Akt activity” value [3] was “neither ICAPP nor ATM inhibited”.

With `O=C([O-])CC([S][Au])C(=O)[O-]` (stereo not drawn) [ATM, aurothiomalate, reference compound] the “insulin-induced increases in Akt activity” value [3] was “neither ICAPP nor ATM inhibited”.
